Assays:
[1] = target: GDP-bound NRAS wild-type protein (Homo sapiens, UniProt P01111); experiment: Binding to NRAS by surface plasmon resonance (SPR), Single Cycle Kinetics; settings: KD ratio NRAS/KRAS, SPR
[2] = target: GDP-bound HRAS wild-type protein (Homo sapiens, UniProt P01112); experiment: Binding to HRAS by surface plasmon resonance (SPR), Single Cycle Kinetics; settings: KD ratio HRAS/KRAS, SPR
GDP-bound HRAS wild-type protein, sequence (P01112 whole entry): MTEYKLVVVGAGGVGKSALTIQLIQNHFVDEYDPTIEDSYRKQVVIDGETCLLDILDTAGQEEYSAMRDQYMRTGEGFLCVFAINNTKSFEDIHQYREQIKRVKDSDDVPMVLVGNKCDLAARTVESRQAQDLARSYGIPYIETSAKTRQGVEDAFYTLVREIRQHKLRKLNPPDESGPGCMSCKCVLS

GDP-bound NRAS wild-type protein, sequence (P01111 whole entry): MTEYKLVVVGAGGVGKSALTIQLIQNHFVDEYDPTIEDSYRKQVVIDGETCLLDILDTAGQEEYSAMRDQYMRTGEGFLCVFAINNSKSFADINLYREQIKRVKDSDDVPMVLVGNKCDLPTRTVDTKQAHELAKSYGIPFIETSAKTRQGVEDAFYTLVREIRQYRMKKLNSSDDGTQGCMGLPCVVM

| SMILES | NRAS/KRAS (ratio of KD value with respect to GDP-bound NRAS wild-type protein to KD value with respect to KRAS) [1] | HRAS/KRAS (ratio of KD value with respect to GDP-bound HRAS wild-type protein to KD value with respect to KRAS) [2] |
| --- | --- | --- |
| CC[C@H](C)[C@@H]1NC(=O)[C@H](CC(C)C)N(C)C(=O)C[C@@H](C(=O)N2CCOCC2)N(C)C(=O)[C@H](C2CCCC2)N(C)C(=O)C2(CCCC2)NC(=O)[C@@H]2CCCN2C(=O)[C@H](CCc2cc(F)c(C(F)(F)F)c(F)c2)NC(=O)CN(C)C(=O)[C@H](Cc2ccc(C(F)(F)F)cc2)N2CCCC[C@@H](C2=O)N(C)C(=O)CNC1=O [PP0542] | B (a compound having 3 or more and less than 10 is denoted as B) | B (a compound having 3 or more and less than 10 is denoted as B) |
| CC[C@H](C)[C@@H]1NC(=O)[C@H](CC(C)C)N(C)C(=O)C[C@@H](C(=O)N2CCOCC2)N(C)C(=O)[C@H](C2CCCC2)N(C)C(=O)C2(CCCC2)NC(=O)[C@@H]2CCCN2C(=O)[C@H](CCc2cc(F)c(C(F)(F)F)c(F)c2)NC(=O)CN(C)C(=O)[C@H](Cc2ccc(C(F)(F)F)cc2)N2CCCC[C@@H](C2=O)N(C)C(=O)[C@H](C)NC1=O [PP0543] | B (a compound having 3 or more and less than 10 is denoted as B) | B (a compound having 3 or more and less than 10 is denoted as B) |
| CC[C@H](C)[C@@H]1NC(=O)[C@H](CC(C)C)N(C)C(=O)C[C@@H](C(=O)N2CCOCC2)N(C)C(=O)[C@H](C2CCCC2)N(C)C(=O)C2(CCCC2)NC(=O)[C@@H]2CCCN2C(=O)[C@H](CCc2cc(F)c(C(F)(F)F)c(F)c2)NC(=O)CN(C)C(=O)[C@H](Cc2ccc(C(F)(F)F)cc2)N2CCCC[C@@H](C2=O)N(C)C(=O)[C@H](C)N(C)C1=O [PP0544] | B (a compound having 3 or more and less than 10 is denoted as B) | B (a compound having 3 or more and less than 10 is denoted as B) |
| CC[C@H](C)[C@@H]1NC(=O)[C@H](CC(C)C)N(C)C(=O)C[C@@H](C(=O)N2CCOCC2)N(C)C(=O)[C@H](C2CCCC2)N(C)C(=O)C2(CCCC2)NC(=O)[C@@H]2CCCN2C(=O)[C@H](CCc2cc(F)c(C(F)(F)F)c(F)c2)NC(=O)CN(C)C(=O)[C@H](Cc2ccc(C(F)(F)F)cc2)N2CCCC[C@@H](C2=O)N(C)C(=O)CN(CC)C1=O [PP0545] | B (a compound having 3 or more and less than 10 is denoted as B) | B (a compound having 3 or more and less than 10 is denoted as B) |
| CC[C@H](C)[C@@H]1NC(=O)[C@H](CC(C)C)N(C)C(=O)C[C@@H](C(=O)N2CCOCC2)N(C)C(=O)[C@H](C2CCCC2)N(C)C(=O)C2(CCCC2)NC(=O)[C@@H]2CCCN2C(=O)[C@H](CCc2cc(F)c(C(F)(F)F)c(F)c2)NC(=O)CN(C)C(=O)[C@H](Cc2ccc(C(F)(F)F)cc2)N2CCCC[C@@H](C2=O)N(C)C(=O)[C@@H]2CCCN2C1=O [PP0547] | B (a compound having 3 or more and less than 10 is denoted as B) | B (a compound having 3 or more and less than 10 is denoted as B) |
| CC[C@H](C)[C@@H]1NC(=O)[C@H](CC(C)C)N(C)C(=O)C[C@@H](C(=O)N2CCOCC2)N(C)C(=O)[C@H](C2CCCC2)N(C)C(=O)C2(CCCC2)NC(=O)[C@@H]2CCCN2C(=O)[C@H](CCc2cc(F)c(C(F)(F)F)c(F)c2)NC(=O)CN(C)C(=O)[C@H](Cc2ccc(C(F)(F)F)cc2)N2CCCC[C@@H](C2=O)N(C)C(=O)[C@@H]2CCCCN2C1=O [PP0548] | C (A compound having a KD ratio of 0.1 or more and less than 3 is denoted as C) | B (a compound having 3 or more and less than 10 is denoted as B) |
| CC[C@H](C)[C@@H]1NC(=O)[C@H](C)N(C)C(=O)C[C@@H](C(=O)N2CCOCC2)N(C)C(=O)[C@H](C2CCCC2)N(C)C(=O)C2(CCCC2)NC(=O)[C@@H]2CCCN2C(=O)[C@H](CCc2cc(F)c(C(F)(F)F)c(F)c2)NC(=O)CN(C)C(=O)[C@H](Cc2ccc(C(F)(F)F)cc2)N2CCCC[C@@H](C2=O)N(C)C(=O)CN(C)C1=O [PP0549] | C (A compound having a KD ratio of 0.1 or more and less than 3 is denoted as C) | B (a compound having 3 or more and less than 10 is denoted as B) |
| CC[C@H](C)[C@@H]1NC(=O)[C@H](CC)N(C)C(=O)C[C@@H](C(=O)N2CCOCC2)N(C)C(=O)[C@H](C2CCCC2)N(C)C(=O)C2(CCCC2)NC(=O)[C@@H]2CCCN2C(=O)[C@H](CCc2cc(F)c(C(F)(F)F)c(F)c2)NC(=O)CN(C)C(=O)[C@H](Cc2ccc(C(F)(F)F)cc2)N2CCCC[C@@H](C2=O)N(C)C(=O)CN(C)C1=O [PP0550] | B (a compound having 3 or more and less than 10 is denoted as B) | B (a compound having 3 or more and less than 10 is denoted as B) |
| CC[C@H](C)[C@@H]1NC(=O)[C@H](CC(C)C)N(C)C(=O)C[C@@H](C(=O)N2CCOCC2)N(C)C(=O)[C@H](C2CCCC2)N(C)C(=O)C2(CCCC2)NC(=O)[C@@H]2CCCN2C(=O)[C@H](CCc2cc(F)c(C(F)(F)F)c(F)c2)NC(=O)CN(C)C(=O)[C@H](Cc2ccc(C(F)(F)F)cc2)N2CCCC[C@@H](C2=O)N(C)C(=O)[C@H](CC)N(C)C1=O [PP0551] | C (A compound having a KD ratio of 0.1 or more and less than 3 is denoted as C) | B (a compound having 3 or more and less than 10 is denoted as B) |
| CC[C@H](C)[C@@H]1NC(=O)[C@H](CC(C)C)N(C)C(=O)C[C@@H](C(=O)N2CCOCC2)N(C)C(=O)[C@H](C2CCCC2)N(C)C(=O)C2(CCCC2)NC(=O)[C@@H]2CCCN2C(=O)[C@H](CCc2cc(F)c(C(F)(F)F)c(F)c2)NC(=O)CN(C)C(=O)[C@H](Cc2ccc(C(F)(F)F)cc2)N2CCCC[C@@H](C2=O)N(C)C(=O)CN(C)C1=O [PP0552] | B (a compound having 3 or more and less than 10 is denoted as B) | B (a compound having 3 or more and less than 10 is denoted as B) |
| CCO[C@@H]1C[C@H]2C(=O)NC3(CCCC3)C(=O)N(C)[C@@H](C3CCCC3)C(=O)N(C)[C@H](C(=O)N3CCOCC3)CC(=O)N(C)[C@@H](CC(C)C)C(=O)N[C@@H]([C@@H](C)CC)C(=O)N(C)CC(=O)N(C)[C@H]3CCCCN(C3=O)[C@@H](Cc3ccc(C(F)(F)F)cc3)C(=O)N(C)CC(=O)N[C@@H](CCc3cc(F)c(C(F)(F)F)c(F)c3)C(=O)N2C1 [PP0554] | B (a compound having 3 or more and less than 10 is denoted as B) | B (a compound having 3 or more and less than 10 is denoted as B) |
| CC[C@H](C)[C@@H]1NC(=O)[C@H](CC(C)C)N(C)C(=O)C[C@@H](C(=O)N2CCOCC2)N(C)C(=O)[C@H](C2CCCC2)N(C)C(=O)C2(CCCC2)NC(=O)[C@@H]2CC(=O)CN2C(=O)[C@H](CCc2cc(F)c(C(F)(F)F)c(F)c2)NC(=O)CN(C)C(=O)[C@H](Cc2ccc(C(F)(F)F)cc2)N2CCCC[C@@H](C2=O)N(C)C(=O)CN(C)C1=O [PP0555] | B (a compound having 3 or more and less than 10 is denoted as B) | B (a compound having 3 or more and less than 10 is denoted as B) |
| CC[C@H](C)[C@@H]1NC(=O)[C@H](CC(C)C)N(C)C(=O)C[C@@H](C(=O)N2CCOCC2)N(C)C(=O)[C@H](C2CCCC2)N(C)C(=O)C2(CCCC2)NC(=O)[C@@H]2C[C@H](O)CN2C(=O)[C@H](CCc2cc(F)c(C(F)(F)F)c(F)c2)NC(=O)CN(C)C(=O)[C@H](Cc2ccc(C(F)(F)F)cc2)N2CCCC[C@@H](C2=O)N(C)C(=O)CN(C)C1=O [PP0556] | C (A compound having a KD ratio of 0.1 or more and less than 3 is denoted as C) | B (a compound having 3 or more and less than 10 is denoted as B) |
| CC[C@H](C)[C@@H]1NC(=O)[C@H](CC(C)C)N(C)C(=O)C[C@@H](C(=O)N2CCOCC2)N(C)C(=O)[C@H](C2CCCC2)N(C)C(=O)C2(CCCC2)NC(=O)[C@@H]2C[C@H](OC)CN2C(=O)[C@H](CCc2cc(F)c(C(F)(F)F)c(F)c2)NC(=O)CN(C)C(=O)[C@H](Cc2ccc(C(F)(F)F)cc2)N2CCCC[C@@H](C2=O)N(C)C(=O)CN(C)C1=O [PP0557] | B (a compound having 3 or more and less than 10 is denoted as B) | B (a compound having 3 or more and less than 10 is denoted as B) |
| CC[C@H](C)[C@@H]1NC(=O)[C@H](CC(C)C)N(C)C(=O)C[C@@H](C(=O)N2CCOCC2)N(C)C(=O)[C@H](C2CCCC2)N(C)C(=O)C2(CCCC2)NC(=O)[C@@H]2[C@@H](O)CCN2C(=O)[C@H](CCc2cc(F)c(C(F)(F)F)c(F)c2)NC(=O)CN(C)C(=O)[C@H](Cc2ccc(C(F)(F)F)cc2)N2CCCC[C@@H](C2=O)N(C)C(=O)CN(C)C1=O [PP0558] | B (a compound having 3 or more and less than 10 is denoted as B) | B (a compound having 3 or more and less than 10 is denoted as B) |
| CC[C@H](C)[C@@H]1NC(=O)[C@H](CC(C)C)N(C)C(=O)C[C@@H](C(=O)N2CCOCC2)N(C)C(=O)[C@H](C2CCCC2)N(C)C(=O)C2(CC2)NC(=O)[C@@H]2CCCN2C(=O)[C@H](CCc2cc(F)c(C(F)(F)F)c(F)c2)NC(=O)CN(C)C(=O)[C@H](Cc2ccc(C(F)(F)F)cc2)N2CCCC[C@@H](C2=O)N(C)C(=O)CN(C)C1=O [PP0559] | B (a compound having 3 or more and less than 10 is denoted as B) | B (a compound having 3 or more and less than 10 is denoted as B) |

Source: patent publication US20250230193A1, “CYCLIC COMPOUND HAVING SELECTIVE KRAS INHIBITORY EFFECT ON HRAS AND NRAS” (CHUGAI SEIYAKU KABUSHIKI KAISHA, priority 2022, published 2025)
